Patent US20090018163A1, “Substituted Heterocyclic Ethers and Their Use in CNS Disorders” (Bristol-Myers Squibb Company, priority 2007, published 2009)
Read-outs that look alike come from different tables or passages of the source.

Tests used:
[1] = target: T1, hSERT (Homo sapiens, UniProt P31645); experiment: SERT radioligand binding assay
T1 construct: expressed in transfected cells; host or cells: HEK-293 cells (crude membrane preparation)
Description: (§1) NK-1 Binding assay. Crude membrane suspensions were prepared for the NK1 and SERT radioligand binding assays from U373 cells or recombinant HEK-293 cells expressing hSERT, respectively. Cells were harvested from T-175 flasks as follows. The medium is removed from the flasks and the cells rinsed with HBSS without Ca and without Mg. The cells are then incubated for 5-10 minutes in 10 mM Tris-Cl, pH 7.5, 5 mM EDTA before the cells are lifted with a combination of pipetting and scraping, as needed. To prepare membranes, the cell suspension is collected into centrifuge bottles and homogenized for 30 seconds with a Polytron homogenizer. The suspension is centrifuged for 30 min @ 32,000×g, 4° C., then the supernatant is decanted and the pellet resuspended and homogenized in 50 mM Tris-Cl, pH 7.5, 1 mM EDTA for 10 seconds. The suspension is then centrifuged again for 30 min @ 32,000×g, 4° C. The supernatant is decanted and the pellet resuspended in 50 mM Tris-Cl, pH 7.5, 1 mM EDTA and briefly homogenized. A Bradford assay (Bio-rad) is performed and the membrane preparation diluted to 2 mg/ml with 50 mM Tris-Cl, pH 7.5, 1 mM EDTA. Aliquots are prepared, and then frozen and stored at −80° C.
SERT radioligand binding assay. Compounds are dissolved in 100% DMSO at a concentration 100× the desired highest assay concentration, serially diluted 1:3 in 100% DMSO, and 0.4 ul/well of each solution is dispensed to a Nunc polypropylene, round bottom, 384 well plate. 100% inhibition is defined with 0.4 ul/well of 1 mM fluoxetine (Sigma F-132) dissolved in DMSO. 20 ul/well of a 2×HEK-hSERT membrane preparation (15 ug/ml in 50 mM Tris-Cl, pH 7.5, 120 mM NaCl, 5 mM KCl) and 20 ul/well of a 2× radioligand solution (520 pM [^125I]RTI-55 (Perkin-Elmer NEX-272) in 50 mM Tris-Cl, pH 7.5, 120 mM NaCl, 5 mM KCl) are added to each well and the reaction incubated for 1 hour at room temperature. The contents of the assay plate are then transferred to a Millipore MultiscreenHTS GF/B filter plate which has been pretreated with 0.5% PEI for at least one hour. The plate is vacuum filtered and washed with 7 washes of 100 ul/well of 50 mM Tris-Cl, pH 7.5, 120 mM NaCl, 5 mM KCl chilled to 4° C. The filtration and washing is completed in less than 90 s. The plates are air-dried overnight, 12 ul/well of MicroScint scintillation fluid added, and the plates counted in a Trilux.
(§2) Data analysis. The raw data are normalized to percent inhibition using control wells defining 0% (DMSO only) and 100% (selective inhibitor) inhibition which are run on each plate. Each plate is run in triplicate, and the concentration response curve thus generated is fit using the four-parameter dose response equation, Y=Bottom+(Top-Bottom)/(1+10̂((LogIC50−X)*HillSlope)) in order to determine the IC50 value for each compound. The radioligand concentration chosen for each assay corresponds to the Kd concentration determined through saturation binding analysis for each assay.

[2] = target: T2, NK-1 (Homo sapiens, UniProt P25103); experiment: NK1 radioligand binding assay; conditions: U373 membrane preparation, [125I]Substance P
T2 construct: 30 ul/well of a 2×U373 membrane preparation; endogenous in cells; host or cells: U373 cells (crude membrane preparation)
Description: as §1
NK1 radioligand binding assay. Compounds are dissolved in 100% DMSO at a concentration 100× the desired highest assay concentration, serially diluted 1:3 in 100% DMSO, and 0.6 ul/well of each solution is dispensed to a Nunc polypropylene, round bottom, 384 well plate. 100% inhibition is defined with 0.6 ul/well of 1 mM L-733,060 (Sigma L-137) dissolved in DMSO. 30 ul/well of a 2×U373 membrane preparation (267 ug/ml in 100 mM Tris-Cl, pH 7.5, 6 mM MgCl2, 0.2% (v/v) Sigma mammalian protease inhibitor cocktail (Sigma P-8340), and 4 ug/ml chymostatin, Sigma C-7268) and 30 ul/well of a 2× radioligand solution (400 pM [^125I]Substance P (Perkin Elmer NEX-190) in 1% (w/v) BSA (Sigma A-2153), 0.1 mg/ml bacitracin, Sigma B-0125) are added to the well and the reaction incubated for 1 hour at room temperature. The contents of the assay plate are then transferred to a Millipore MultiscreenHTS GF/B filter plate which has been pretreated with 0.5% PEI for at least one hour. The plate is vacuum filtered and washed with 7 washes of 100 ul/well of 20 mM Tris-Cl, pH 7.5, 0.5% (w/v) BSA chilled to 4° C. The filtration and washing is completed in less than 90 s. The plates are air-dried overnight, 12 ul/well of MicroScint scintillation fluid added, and the plates counted in a Trilux.
as §2

[3] = HEK-hSERT membrane preparation, [125I]RTI-55, Table 1, read-out: SERT IC50

T2 sequence (P25103 whole entry): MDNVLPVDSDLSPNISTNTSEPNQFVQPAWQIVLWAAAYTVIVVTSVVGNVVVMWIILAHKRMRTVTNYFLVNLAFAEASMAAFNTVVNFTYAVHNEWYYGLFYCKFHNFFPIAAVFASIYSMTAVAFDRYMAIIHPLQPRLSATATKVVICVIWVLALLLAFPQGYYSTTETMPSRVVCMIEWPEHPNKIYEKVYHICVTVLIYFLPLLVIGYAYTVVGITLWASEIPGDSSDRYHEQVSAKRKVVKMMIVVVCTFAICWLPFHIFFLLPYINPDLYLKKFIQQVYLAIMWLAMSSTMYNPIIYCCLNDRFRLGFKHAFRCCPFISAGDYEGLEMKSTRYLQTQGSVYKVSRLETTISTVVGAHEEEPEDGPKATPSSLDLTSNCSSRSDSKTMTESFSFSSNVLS
T1 sequence (P31645 whole entry): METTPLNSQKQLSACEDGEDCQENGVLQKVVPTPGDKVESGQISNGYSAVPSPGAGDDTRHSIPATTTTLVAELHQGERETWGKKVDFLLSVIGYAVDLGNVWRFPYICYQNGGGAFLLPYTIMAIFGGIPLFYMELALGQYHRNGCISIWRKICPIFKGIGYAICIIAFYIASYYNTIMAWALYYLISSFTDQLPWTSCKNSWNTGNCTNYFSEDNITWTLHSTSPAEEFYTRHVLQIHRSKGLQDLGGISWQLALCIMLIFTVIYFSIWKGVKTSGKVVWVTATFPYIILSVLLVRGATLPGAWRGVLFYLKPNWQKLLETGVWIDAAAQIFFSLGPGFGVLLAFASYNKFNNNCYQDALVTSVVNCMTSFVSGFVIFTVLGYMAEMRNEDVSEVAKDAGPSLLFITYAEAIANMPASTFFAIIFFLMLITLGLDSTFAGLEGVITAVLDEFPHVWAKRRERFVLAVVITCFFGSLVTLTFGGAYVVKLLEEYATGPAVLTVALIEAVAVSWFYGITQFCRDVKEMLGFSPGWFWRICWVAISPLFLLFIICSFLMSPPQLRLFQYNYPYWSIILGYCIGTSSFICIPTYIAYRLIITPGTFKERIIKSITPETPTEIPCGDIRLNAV

SMILES	IC50 ([1]; read-out: SERT IC50, HEK-hSERT membrane preparation, [125I]RTI-55, Table 1a, single enantiomers) [nM]	IC50 ([2]; Table 1a, single enantiomers) [nM]	IC50 [1, 3] [nM]	IC50 ([2]; Table 1) [nM]	IC50 [1] [nM]
CC(OCC1(c2ccc(F)cc2)CCN(C)CC1)c1cc(C(F)(F)F)cc2cccnc12 (single isomer, unassigned) [Example 69]	0.01 to 100	> 300			
Cc1ccc2cc(COCC3(c4ccccc4)CCN(C)CC3)ccc2n1 [Example 10]			0.01 to 100	> 300	
Cc1cc(COCC2(c3ccccc3)CCN(C)CC2)c2ncccc2c1 [Example 26]			0.01 to 100	0.01 to 100	
COc1ccc2cc(C)cc(C(C)OCC3(c4ccc(F)cc4)CCN(C)CC3)c2n1 (stereo not drawn) [Example 50]			0.01 to 100	0.01 to 100	
CC(OCC1(c2ccc(F)cc2)CCN(C)CC1)c1cc(Br)cc2cccnc12 (single isomer, unassigned) [Example 78]		100 to 300			0.01 to 100
Nc1cc(COCC2(c3ccccc3)CCNCC2)nc2ccccc12 [Example 7]			0.01 to 100	> 300	
